# Experimental data reported in patent publication US20120190703A1, “SALTS OF 13A-(S)DESOXYTYLOPHORININE, PREPARATION METHODS AND PHARMACEUTICAL COMPOSITIONS AND USES THEREOF” (priority 2009, published 2012).
# “And” between values parts separate entries of the source, which are not always exact repeats. Equal values may be shown once. Where a name gives a salt, the structure may show the parent alone. Read-outs that look alike come from different tables or passages of the source. Marks after values point to notes of the source that are not given here.
# Experiments:
# [1] = Drug distribution in brain tissue after oral administration in mice; type: in vivo, ICR mice; settings: for Brain contents of (+)-13a-(S)-deoxytylophorinine (ng/ml), Mean ± SD / Brain contents of (+)-13a-(S)-deoxytylophorinine (ng/ml), individual animals 1-3: 6 mg/kg oral
# Experimental: (§1) Male ICR mice. Body weight 18˜22 g.
# Plasma was isolated by centrifugalization. […] 25% tissue homogenate was prepared with normal saline addition.
# The drug concentration-time data in brain tissue after administered orally of (+)-13a-(S)-deoxytylophorinine tartrate, maleate and citrate were represented in Table 8˜10 and FIG. 6˜8. […] (+)-13a-(S)-deoxytylophorinine could be detected in 5 min. The peak concentration was reached after 15 min, and the compound still can be detected after 2 h after administration.
# [2] = test system: H22 tumor-bearing mice
# Text: To determine the pharmacodynamic characters of 13a-(S)-deoxytylophorinine and its salts, the impact of these compounds to the tumor growth in H22 tumor-bearing mice was surveyed.
# Male Kunming mice were obtained from the Laboratory Animal Center, Academy of Military Medical Science. Body weight 18˜22 g. 6 animals per group, totally 10 groups, 60 animals.
# (+)-13a-(S)-deoxytylophorinine, (+)-13a-(S)-deoxytylophorinine Tartrate, (+)-13a-(S)-deoxytylophorinine Maleate, (+)-13a-(S)-deoxytylophorinine Citrate, Cytoxane (CTX) as positive control.
# (+)-13a-(S)-deoxytylophorinine was administered at high dose (5 mg/kg) and low dose (2.5 mg/kg). Three (+)-13a-(S)-deoxytylophorinine salts were administered at high dose and low dose as equal moles with their prototype (Tartrate: 7.05 mg/kg, 3.53 mg/kg; Malate: 6.60 mg/kg, 3.30 mg/kg; Citrate: 7.90 mg/kg, 3.95 mg/kg).
# (§2) Animals were reared in SPF grade circumstance to be observed for 24 h. The tumor cells liquid which resuscitated in abdominal cavity of KM mice was diluted with aseptic normal saline at 1:3 ratio. The resulting liquid was inoculated subcutaneously at forelimb with 0.2 mL every animal. After the injection over, the animals were divided to 12 groups with 6 animals per group.
# Four experimental samples were intragastric administered once daily 24 h after inoculation. The positive control CTX was intraperitoneal injected once daily. The animal body weight was recorded every day.
# [3] = Solubility in water; type: physicochemical; settings: for solubility: water
# [4] = Plasma pharmacokinetics after oral administration in mice
# Experimental: To determine the pharmacokinetic characters of 13a-(S)-deoxytylophorinine and its salts, the studies about plasma pharmacokinetics and the character of distribution in brain were pursued.
# as §1
# (+)-13a-(S)-deoxytylophorinine Tartrate, (+)-13a-(S)-deoxytylophorinine Maleate, (+)-13a-(S)-deoxytylophorinine Citrate. All were dissolved in distilled water as 0.6 mg/ml solution before experiment progressed.
# 72 mice were divided to 3 groups with 24 animals per group, fasting for 16 h and drinking water freely. […] Plasma was isolated by centrifugalization. After the salts were administered orally, the brain tissues of mice were collected at 5 min, 15 min, 2 h time points. 25% tissue homogenate was prepared with normal saline addition. 200 μL of homogenate and plasma were added isovolumic MeCN to precipitate protein. 5 μL of clear supernatant was analyzed by LC/MS/MS.
# (+)-13a-(S)-deoxytylophorinine was dissolved in DMSO and then diluted with MeOH with concentration 10, 50, 100, 500, 1000 and 2500 ng/ml respectively. 10 μl of standard solutions of (+)-13a-(S)-deoxytylophorinine with different concentration above were added to 200 μl of blank plasma sequently to adjust the concentration to 0.5, 2.5, 5, 25, 50, 125 ng/ml respectively. MeCN was added to the solution to precipitate protein, and 5 μl of result clear supernatant was analyzed with LC/MS/MS. Linear regression was ran with the peak area of (+)-13a-(S)-deoxytylophorinine as ordinate and the concentrations as abscissa.
# [5] = test system: H22 tumor-bearing mice; remark: listed apart in the source
# Experimental: To observe the impact of 13a-(S)-deoxytylophorinine Sulfate: on the tumor growth of H22 tumor-bearing mice.
# Male Kunming mice were obtained from the Laboratory Animal Center, Academy of Military Medical Science. Body weight 18˜22 g.
# (+)-13a-(S)-deoxytylophorinine Sulfate, Cytoxane (CTX) as positive control.
# All the samples were administered orally. o.d. 0.2 ml/10 g.
# (+)-13a-(S)-deoxytylophorinine Sulfate was administered at five dose groups: 3 mg/kg, 4 mg/kg, 5 mg/kg, 6 mg/kg and 8 mg/kg.
# as §2, with “KM species” for “KM”, “13 groups. Experimental samples were administered 24 h after inoculation.” for “12 groups with 6 animals per group.”
# [6] = high dose × 7 d, intragastric once daily, equal moles: prototype 5.0, tartrate 7.05, maleate 6.60, citrate 7.90 mg/kg
# [7] = low dose × 7 d, intragastric once daily, equal moles: prototype 2.5, tartrate 3.53, maleate 3.30, citrate 3.95 mg/kg
# [8] = 6 mg/kg oral, mice, Time (min) 0.5
# [9] = 6 mg/kg oral, mice, Time (min) 1
# [10] = male, ICR, mouse, plasma, po, 6 mg/kg
structure (smiles),measurement,setting,value
"COc1ccc2c3c(c4cc(OC)c(OC)cc4c2c1)CN1CCC[C@H]1C3.O=C(O)CC(O)(CC(=O)O)C(=O)O [Citrate, (+)-13a-(S)-deoxytylophorinine Citrate]","Brain contents of (+)-13a-(S)-deoxytylophorinine (ng/ml), Mean ± SD",[1]; Time (min) 5,23.6 ± 12.7 ng/mL
same,"Brain contents of (+)-13a-(S)-deoxytylophorinine (ng/ml), individual animals 1-3",[1]; Time (min) 5,22.0 ng/mL and 37.1 ng/mL and 11.8 ng/mL
same,"Brain contents of (+)-13a-(S)-deoxytylophorinine (ng/ml), Mean ± SD",[1]; Time (min) 15,87.3 ± 50.1 ng/mL
same,"Brain contents of (+)-13a-(S)-deoxytylophorinine (ng/ml), individual animals 1-3",[1]; Time (min) 15,84.8 ng/mL and 138.7 ng/mL and 38.5 ng/mL
same,"Brain contents of (+)-13a-(S)-deoxytylophorinine (ng/ml), Mean ± SD",[1]; Time (min) 120,48.7 ± 14.1 ng/mL
same,"Brain contents of (+)-13a-(S)-deoxytylophorinine (ng/ml), individual animals 1-3",[1]; Time (min) 120,37.0 ng/mL and 44.8 ng/mL and 64.4 ng/mL
same,Drug contents in brain compared with prototype,"[1]; oral, 3 time points",lower than its prototype
same,Animal No. (Initial/Final),[2]; [6],6/5
same,Body Weight(g) Final,[2]; [6],14.27 ± 2.61 g
same,Body Weight(g) Initial,[2]; [6],22.00 ± 1.55 g⁻¹
same,Inhibition (%),[2]; [6],80.44** %
same,"Tumor Weight (g, mean ± SD)",[2]; [6],0.22 ± 0.13 g
same,Animal No. (Initial/Final),[2]; [7],6/6
same,Body Weight(g) Final,[2]; [7],21.01 ± 2.04 g
same,Body Weight(g) Initial,[2]; [7],21.83 ± 0.75 g⁻¹
same,Inhibition (%),[2]; [7],46.87* %
same,"Tumor Weight (g, mean ± SD)",[2]; [7],0.61 ± 0.35 g
same,Solubility in water (words),[3],soluble in water
same,solubility,[3],33 mg/mL
same,Peak concentration in blood,"[4]; 6 mg/kg oral, mice",20.1 ± 12.2 ng/mL
same,Time of peak concentration in blood,"[4]; 6 mg/kg oral, mice",15 min
same,t½z,"[4]; 6 mg/kg oral, mice, plasma, non-compartment model",0.86 h
same,"Blood concentration of (+)-13a-(S)-deoxytylophorinine (ng/ml), Mean ± SD",[4]; [8],12.6 ± 6.5 ng/mL
same,"Blood concentration of (+)-13a-(S)-deoxytylophorinine (ng/ml), individual animals 1-3",[4]; [8],20.1 ng/mL and 8.4 ng/mL and 9.3 ng/mL
same,"Blood concentration of (+)-13a-(S)-deoxytylophorinine (ng/ml), Mean ± SD",[4]; [9],8.4 ± 2.9 ng/mL
same,"Blood concentration of (+)-13a-(S)-deoxytylophorinine (ng/ml), individual animals 1-3",[4]; [9],11.2 ng/mL and 5.4 ng/mL and 8.5 ng/mL
same,AUC(0-inf),[4]; [10],33.1 ng·h/mL
same,AUC(0-t),[4]; [10],32.7 ng·h/mL
same,Cmax,[4]; [10],20.1 ng/mL
same,MRT inf,[4]; [10],2.29 h
same,MRT last,[4]; [10],1.73 h
same,Tmax,[4]; [10],0.25 h
"COc1ccc2c3c(c4cc(OC)c(OC)cc4c2c1)CN1CCC[C@H]1C3 [Sulfate, (+)-13a-(S)-deoxytylophorinine Sulfate]",Animal No. (Initial/Final),"[5]; 3 mg/kg × 7, oral (o.p.)",6/6
same,Body Weight(g) Final,"[5]; 3 mg/kg × 7, oral (o.p.)",26.83 ± 2.56 g
same,Body Weight(g) Initial,"[5]; 3 mg/kg × 7, oral (o.p.)",20.67 ± 0.52 g⁻¹
same,Inhibition (%),"[5]; 3 mg/kg × 7, oral (o.p.)",22.49* %
same,"Tumor Weight (g, mean ± SD)","[5]; 3 mg/kg × 7, oral (o.p.)",0.98 ± 0.21 g
same,Animal No. (Initial/Final),"[5]; 4 mg/kg × 7, oral (o.p.)",6/6
same,Body Weight(g) Final,"[5]; 4 mg/kg × 7, oral (o.p.)",22.83 ± 2.40 g
same,Body Weight(g) Initial,"[5]; 4 mg/kg × 7, oral (o.p.)",20.00 ± 1.26 g⁻¹
same,Inhibition (%),"[5]; 4 mg/kg × 7, oral (o.p.)",52.51* %
same,"Tumor Weight (g, mean ± SD)","[5]; 4 mg/kg × 7, oral (o.p.)",0.60 ± 0.32 g
same,Animal No. (Initial/Final),"[5]; 5 mg/kg × 7, oral (o.p.)",6/6
same,Body Weight(g) Final,"[5]; 5 mg/kg × 7, oral (o.p.)",22.17 ± 5.31 g
same,Body Weight(g) Initial,"[5]; 5 mg/kg × 7, oral (o.p.)",19.83 ± 1.72 g⁻¹
same,Inhibition (%),"[5]; 5 mg/kg × 7, oral (o.p.)",41.75* %
same,"Tumor Weight (g, mean ± SD)","[5]; 5 mg/kg × 7, oral (o.p.)",0.73 ± 0.39 g
same,Deaths of mice (table note),[5]; 6 mg/kg orally,"After (+)-13a-(S)-deoxytylophorinine Sulfate (6 mg/kg) was administered orally, one of mice died on sixth day, two of mice died on seventh day. Stop administion."
same,Animal No. (Initial/Final),"[5]; 6 mg/kg × 6, oral (o.p.)",6/3
same,Body Weight(g) Final,"[5]; 6 mg/kg × 6, oral (o.p.)",15.33 ± 3.21 g
same,Body Weight(g) Initial,"[5]; 6 mg/kg × 6, oral (o.p.)",19.83 ± 1.72 g⁻¹
same,Inhibition (%),"[5]; 6 mg/kg × 6, oral (o.p.)",68.52** %
same,"Tumor Weight (g, mean ± SD)","[5]; 6 mg/kg × 6, oral (o.p.)",0.40 ± 0.24 g
same,Deaths of mice (table note),[5]; 8 mg/kg orally,"After (+)-13a-(S)-deoxytylophorinine Sulfate (8 mg/kg) was administered orally, one of mice died on sixth day, two of mice died on seventh day. Stop administion."
same,Animal No. (Initial/Final),"[5]; 8 mg/kg × 6, oral (o.p.)",6/0
same,Body Weight(g) Initial,"[5]; 8 mg/kg × 6, oral (o.p.)",20.67 ± 1.03 g⁻¹
same,Inhibition (%),"[5]; 8 mg/kg × 6, oral (o.p.)",88.49** %
same,"Tumor Weight (g, mean ± SD)","[5]; 8 mg/kg × 6, oral (o.p.)",0.15 ± 0.04 g
same,solubility,[3],200 mg/mL
"O=P1(N(CCCl)CCCl)NCCCO1 (stereo not drawn) [CTX, Cytoxan, reference compound]",Animal No. (Initial/Final),"[5]; 100 mg/kg × 1, i.p.",6/6
same,Body Weight(g) Final,"[5]; 100 mg/kg × 1, i.p.",25.00 ± 2.37 g
same,Body Weight(g) Initial,"[5]; 100 mg/kg × 1, i.p.",20.67 ± 2.07 g⁻¹
same,Inhibition (%),"[5]; 100 mg/kg × 1, i.p.",94.76** %
same,"Tumor Weight (g, mean ± SD)","[5]; 100 mg/kg × 1, i.p.",0.07 ± 0.04 g
same,Animal No. (Initial/Final),"[2]; 100 mg/kg × 1, i.p.",6/6
same,Body Weight(g) Final,"[2]; 100 mg/kg × 1, i.p.",23.77 ± 1.38 g
same,Body Weight(g) Initial,"[2]; 100 mg/kg × 1, i.p.",21.33 ± 1.63 g⁻¹
same,Inhibition (%),"[2]; 100 mg/kg × 1, i.p.",48.47* %
same,"Tumor Weight (g, mean ± SD)","[2]; 100 mg/kg × 1, i.p.",0.59 ± 0.26 g
